In ChEMBL document CHEMBL3046521, “Synthesis and antitumor activity of (4-hydroxyphenyl)[5-substituted alkyl/aryl)-2-thioxo-1,3,4-thiadiazol-3-yl]methanone and [(3,4-disubstituted)-1,3-thiazol-2ylidene]-4-hydroxybenzohydrazide” (2011):

Test system: SK-MEL-5
Assay: Anticancer activity in Homo sapiens (human) SK-MEL-5 cells assessed as cell growth at 10^-5 M after 48 hr by SRB assay
Assay type: functional
Settings: SK-MEL-5, 48 h, read-out: Activity

Q: Which growth at 10 µM does the source give for `Cc1ccc(-c2cs/c(=N\NC(=O)c3ccc(O)cc3)n2-c2c(C)cccc2C)cc1` here?
A: 5.18%
